Measured values reported in patent publication US20190307729A1, “ANTIMICROBIAL COMPOUNDS AND METHODS FOR USE THEREOF” (VERSITECH LIMITED, priority 2016, published 2019).
Like-named read-outs stand apart in the source and are kept apart here.

Assays:
[1] = tested on: S. aureus Mu3; test: Secondary screening of compound 13 analogues in combination with gentamicin (growth by OD 595 nm); conditions: for 20 μM + 200 μg/ml Gentamicin Growth inhibition Percentage: 20 μM compound + 200 μg/ml gentamicin; for inhibition at 50 µM / activity at 5 µM / activity at 20 µM / activity at 50 µM / inhibition at 20 µM: Staphylococcus aureus; for activity at 5 µM / activity at 20 µM / activity at 50 µM: MU3, 16 h; for 50 μM + 200 μg/ml Gentamicin Growth inhibition Percentage: 50 μM compound + 200 μg/ml gentamicin
Protocol: All screening is done in 384-well polystyrene microtiter plates (Greiner Bio-One). Overnight culture of Mu3 is washed with BHI medium 3 times, diluted and plated to give 5×10^5 CFU/mL per well. The plates are incubated at 37° C. for 16 hours and growth is monitored by optical density reading at 595 nm using an automated DTX 880 multimode detector. Screening using BHI medium is designated as the background screen. […] Sub MIC concentration of antibiotics is selected for screening. BHI containing a final concentration for gentamicin 156.25 μg/mL is used correspondingly for individual experiments. […] Screening results with various antibiotics is normalized with the background screening to calculate the percentage of growth inhibition.
Identical experimental procedures are performed as primary screening procedures, except different concentrations of selected compound are tested.
Secondary like screening was performed with different concentrations of each analogue compounds were tested with different gentamicin concentration, 50 μM, 20 μM and 5 μM compound concentration were used against, BHI containing, 0 μg/ml, 100 μg/ml and 200 μg/ml gentamicin.

[2] = tested on: Vero cells; test: Cytotoxicity assay (MTT); assay type: cell-based
Protocol: MTT assays are performed for selected compounds on Vero cells according to product instructions.

[3] = tested on: S. aureus Mu3 strain; test: Microdilution checkerboard assay of compound with aminoglycosides
Protocol: The Checkerboard assay is performed in 96-well microtitre plates. […] The antibiotics are 2 fold serially diluted along the ordinate, the compounds are added along the abscissa to generate the checkerboard concentration gradients between the compounds and the antibiotics. Bacterial culture are topped and incubated overnight. Bacterial growth is monitored by the OD absorbance at 595 nm.
The concentration tested range was from 500M to 0.98 μM. MICs higher than 500M were not determined.

[4] = [Cpd] 5 μM, BHI only (no gentamicin), relative to DMSO = 1
[5] = [Cpd] 5 μM, [Genta] 100 ug/ml, relative to DMSO = 1
[6] = [Cpd] 5 μM, [Genta] 200 ug/ml, relative to DMSO = 1
[7] = [Cpd] 20 μM, BHI only (no gentamicin), relative to DMSO = 1
[8] = [Cpd] 20 μM, [Genta] 100 ug/ml, relative to DMSO = 1
[9] = [Cpd] 20 μM, [Genta] 200 ug/ml, relative to DMSO = 1
[10] = [Cpd] 50 μM, BHI only (no gentamicin), relative to DMSO = 1
[11] = [Cpd] 50 μM, [Genta] 100 ug/ml, relative to DMSO = 1
[12] = [Cpd] 50 μM, [Genta] 200 ug/ml, relative to DMSO = 1
[13] = MU3, read-out: 50 μM + 200 μg/ml Gentamicin Growth inhibition Percentage, 50 μM compound + 200 μg/ml gentamicin, S. aureus Mu3
[14] = MU3, read-out: 20 μM + 200 μg/ml Gentamicin Growth inhibition Percentage
[15] = MU3, read-out: 50 μM + 200 μg/ml Gentamicin Growth inhibition Percentage
[16] = read-out: relative growth, [Cpd] 5 μM, BHI only (no gentamicin), relative to DMSO = 1
[17] = read-out: relative growth, [Cpd] 20 μM, BHI only (no gentamicin), relative to DMSO = 1
[18] = read-out: relative growth, [Cpd] 50 μM, BHI only (no gentamicin), relative to DMSO = 1

SMILES	relative growth [1, 5]	relative growth [1, 6]	relative growth [1, 8]	relative growth [1, 9]	relative growth [1, 11]	relative growth [1, 12]	activity at 5 µM ([1]; read-out: relative growth)	activity at 20 µM ([1]; read-out: relative growth)	activity at 50 µM ([1]; read-out: relative growth)	inhibition at 20 µM [1, 14]	inhibition at 50 µM [1, 15]	other results
O=C(O)CN1C(=O)/C(=C/c2ccccc2)SC1=S [Compound 1]	1.29	1.45	1.1	1.05	1.11	1.01	–	–	–	–	–	relative growth [1, 4]: 1.38; relative growth [1, 7]: 1.22; relative growth [1, 10]: 1
COC(=O)c1ccccc1 [Compound 2]	1.1	1.2	0.93	0.65	0.62	*0.24	–	–	–	–	–	20 μM + 200 μg/ml Gentamicin Growth inhibition Percentage ([1]; S. aureus Mu3, 20 µM): 35%; inhibition at 50 µM [1, 13]: 76%; relative growth [1, 4]: 1.15; relative growth [1, 7]: 1.08; relative growth [1, 10]: 1.07
COc1cc(/C=C2\SC(=S)N(CC(=O)O)C2=O)ccc1OCc1ccc(Cl)cc1 [Compound 6]	1.13	1.11	0.61	*0.1	*0.2	*0.11	120%	114%	79%	90%	89%	–
COc1ccc(/C=C2\SC(=S)N(CC(=O)O)C2=O)cc1OCc1ccc(Cl)cc1 [Compound 15]	1.01	1	0.52	*0.09	*0.18	*0.11	102%	97%	79%	91%	89%	–
O=C(O)CN1C(=O)/C(=C/c2cccc(OCc3ccc(Cl)cc3Cl)c2)SC1=S [Compound 17]	*0.35	*0.1	*0.09	*0.09	*0.14	*0.13	99%	74%	43%	91%	87%	cytotoxicity from Vero cell MTT assays [2]: high cytotoxicity; Cytotoxicity ([2]; MTT assays in Vero cells): High; Combinatory effect with gentamicin ([3]; checkerboard): Potentiating; combined effect with gentamicin in inhibiting growth [3]: potentiating activities; combined effect with gentamicin in inhibiting growth ([3]; listed as compound 17): potentiating effect
COc1ccc(/C=C2\SC(=S)N(CC(=O)O)C2=O)cc1OCc1ccc(Cl)cc1Cl [Compound 18]	0.97	0.9	0.8	0.76	0.88	0.7	98%	85%	97%	24%	30%	–
COc1cc(/C=C2\SC(=S)N(CC(=O)O)C2=O)ccc1OCc1ccccc1 [Compound 22]	1.08	1.05	0.99	0.88	0.91	0.52	108%	101%	94%	12%	48%	–
COc1ccc(/C=C2\SC(=S)N(CC(=O)O)C2=O)cc1OCc1ccccc1 [Compound 24]	0.94	0.95	0.92	0.73	0.72	*0.32	96%	93%	92%	27%	68%	–
COc1cc(/C=C2\SC(=S)N(CC(=O)O)C2=O)ccc1OCc1ccccc1F [Compound 25]	0.95	0.92	0.89	0.62	0.91	0.42	96%	91%	95%	38%	58%	–
COC(=O)c1ccccc1 [Compound 29]	0.94	0.89	0.67	*0.39	*0.11	*0.08	–	–	–	–	–	20 μM + 200 μg/ml Gentamicin Growth inhibition Percentage ([1]; S. aureus Mu3, 20 µM): 61%; 50 μM + 200 μg/ml Gentamicin Growth inhibition Percentage ([1]; S. aureus Mu3, 50 µM): 92%; activity at 5 µM [1, 16]: 96%; activity at 20 µM [1, 17]: 90%; activity at 50 µM [1, 18]: 89%
CCOc1ccc(/C=C2\SC(=S)N(CC(=O)O)C2=O)cc1 [Compound 31]	0.98	0.95	0.98	0.77	0.98	0.61	99%	96%	98%	23%	39%	–
CCOc1cc(/C=C2\SC(=S)N(CC(=O)O)C2=O)ccc1OCc1ccc(Cl)c(Cl)c1 [Compound 34]	0.9	*0.24	0.67	*0.33	1.16	0.57	112%	109%	113%	67%	43%	–
COc1cc(/C=C2\SC(=S)N(CC(=O)O)C2=O)ccc1OCc1ccc(Br)cc1 [Compound 44]	1.02	0.83	0.99	0.83	0.97	0.47	103%	103%	98%	17%	53%	–
COc1cc(C=C2SC(=S)N(CC(=O)O)C2=O)ccc1OCc1ccc(F)cc1Cl [Compound 50]	0.91	0.87	0.82	0.64	0.9	0.6	–	–	–	–	–	20 μM + 200 μg/ml Gentamicin Growth inhibition Percentage ([1]; S. aureus Mu3): 36%; 50 μM + 200 μg/ml Gentamicin Growth inhibition Percentage ([1]; S. aureus Mu3): 40%; relative growth [1, 4]: 0.93; relative growth [1, 7]: 0.82; relative growth [1, 10]: 0.96
COCc1ccccc1 [Compound 52]	0.96	0.93	0.89	0.69	0.74	*0.36	–	–	–	–	–	activity at 5 µM [1, 16]: 95%; activity at 20 µM [1, 17]: 86%; activity at 50 µM [1, 18]: 76%; inhibition at 20 µM ([1]; MU3, read-out: 20 μM + 200 μg/ml Gentamicin Growth inhibition Percentage, 20 μM compound + 200 μg/ml gentamicin, S. aureus Mu3): 31%; inhibition at 50 µM [1, 13]: 64%
CC(C(=O)O)N1C(=O)/C(=C/c2ccc(Cl)cc2)SC1=S (stereo not drawn) [Compound 53]	0.92	0.89	0.9	0.76	0.84	*0.38	93%	89%	88%	24%	62%	–
O=C(O)CN1C(=O)/C(=C/c2cccc(OCc3ccccc3F)c2)SC1=S [Compound 63]	0.97	0.88	0.67	*0.35	*0.11	*0.08	97%	93%	84%	65%	92%	–
COC(=O)CN1C(=O)C(=Cc2ccc(OCc3ccccc3)cc2)SC1=S [Compound 69]	0.97	0.98	0.56	*0.11	*0.27	*0.23	–	–	–	–	–	20 μM + 200 μg/ml Gentamicin Growth inhibition Percentage ([1]; S. aureus Mu3): 89%; 50 μM + 200 μg/ml Gentamicin Growth inhibition Percentage ([1]; S. aureus Mu3): 77%; relative growth [1, 4]: 0.97; relative growth [1, 7]: 1.02; relative growth [1, 10]: 0.55
